Source: patent US20120148492A1, “BISPHOSPHONIC ACID DERIVATIVE AND COMPOUND THEREOF LABELED WITH RADIOACTIVE METAL NUCLIDE” (FUJIFILM RI PHARMA CO., LTD., priority 2009, published 2012)

Key:
[1] = In vivo distribution of 68Ga-DOTA-alendronate in rats; set-up: species or system rat; details: for Blood radioactivity / Bone radioactivity / Kidney radioactivity / Large intestine radioactivity / Liver radioactivity / Muscle radioactivity / Small intestine radioactivity / Spleen radioactivity / Bone/blood: Wistar male rats, 120 minutes after drug administration; for Blood radioactivity / Bone radioactivity / Kidney radioactivity / Large intestine radioactivity / Liver radioactivity / Muscle radioactivity / Small intestine radioactivity / Spleen radioactivity: tail vein; for Bone/blood: ratio of radioactivity accumulation
Description: To groups, each containing three Wistar male rats, 0.2 mL of each of 68Ga-DOTA-alendronate and 99mTc-MDP (product name: Techne MDP injection, manufactured by FUJIFILM RI Pharma Co., Ltd., 740 MBq/2 mL), each diluted to 12.3 to 19.8 MBq/mL, was administered into the rat tail vein under anesthesia. Then, 120 minutes after administration, the rats were sacrificed, organs were excised, and the weight and the radioactivity of each organ were measured. The measurement values were calculated as % I.D./g tissue weight, which is the radioactivity in each tissue divided by the tissue weight, as the ratio with respect to the dose.

[2] = tested on: local bone metastasis model (human prostate cancer-derived cells transplanted into the right tibia); details: local bone metastasis model mouse, approximately 6.0 MBq, from 60 minutes after administration
Description: Human prostate cancer-derived cells were transplanted into the right tibia of a mouse to produce a local bone metastasis model. To this model mouse, approximately 6.0 MBq of 68Ga-NOTA-alendronate was administered into the […] under anesthesia. An image was taken by PET/CT 60 minutes after administration.

[3] = Wistar male rats, 18.5 to 37 MBq tail vein, from 60 minutes after administration
Description: To Wistar male rats, 68Ga-NOTA-alendronate and 99m Tc-MDP were each administered into the rat tail vein in amounts of 18.5 to 37 MBq under anesthesia. Then, 60 and 180 minutes after administration, images were taken by PET/CT or a SPECT camera.

[4] = Rat in vivo distribution experiment; details: for Blood radioactivity / Bone radioactivity / Kidney radioactivity / Large intestine radioactivity / Liver radioactivity / Muscle radioactivity / Small intestine radioactivity / Spleen radioactivity / Bone/blood: Wistar male rats; for Blood radioactivity / Bone radioactivity / Kidney radioactivity / Large intestine radioactivity / Liver radioactivity / Muscle radioactivity / Small intestine radioactivity / Spleen radioactivity: tail vein; for Bone/blood: ratio of radioactivity accumulation
Description: Subsequently, 15, 30, 60, 120, and 240 minutes after administration, the rats were sacrificed, organs were excised, and the weight and the radioactivity of each organ were measured. The measurement values were calculated as % I.D./g tissue weight, which is the radioactivity in each tissue divided by the tissue weight, as the ratio with respect to the dose.

SMILES: O=C([O-])CN1CCN(CC(=O)[O-])CCN(CC(=O)NCCCC(O)(P(=O)(O)O)P(=O)(O)O)CCN(CC(=O)[O-])CC1.[68Ga+3] [68Ga-DOTA-alendronate]
- radioactivity accumulation in bone ([1]; 120 minutes after administration, as 99mTc-MDP did): high radioactivity accumulation in bone
- Blood radioactivity [1]: 0.024 % I.D./g
- Bone radioactivity [1]: 4.54 % I.D./g
- Kidney radioactivity [1]: 0.26 % I.D./g
- Large intestine radioactivity [1]: 0.055 % I.D./g
- Liver radioactivity [1]: 0.018 % I.D./g
- Muscle radioactivity [1]: 0.005 % I.D./g
- Small intestine radioactivity [1]: 0.522 % I.D./g
- Spleen radioactivity [1]: 0.020 % I.D./g
- clearance from blood ([1]; rat, versus 99mTc-MDP): delayed clearance from blood
- Bone/blood [1]: 189
- ratio of radioactivity accumulation in bone/blood ([1]; two hours after administration, versus 99mTc-MDP): no improvement

SMILES: O=C([O-])CN1CCN(CC(=O)[O-])CCN(C(CCC(=O)NCCCC(O)(P(=O)(O)O)P(=O)(O)O)C(=O)[O-])CC1.[68Ga+3] (stereo not drawn) [68Ga-NOTA-alendronate]
- visualization of bone and bone lesion in PET/CT image [2]: bone and the arrowed bone lesion are clearly visualized
- visualization of bone in images [3]: bone is clearly visualized
- Blood radioactivity ([4]; 15 min after administration): 0.399 % I.D./g
- Bone radioactivity ([4]; 15 min after administration): 3.64 % I.D./g
- Kidney radioactivity ([4]; 15 min after administration): 3.43 % I.D./g
- Large intestine radioactivity ([4]; 15 min after administration): 0.132 % I.D./g
- Liver radioactivity ([4]; 15 min after administration): 0.081 % I.D./g
- Muscle radioactivity ([4]; 15 min after administration): 0.085 % I.D./g
- Small intestine radioactivity ([4]; 15 min after administration): 0.121 % I.D./g
- Spleen radioactivity ([4]; 15 min after administration): 0.103 % I.D./g
- Blood radioactivity ([4]; 30 min after administration): 0.145 % I.D./g
- Bone radioactivity ([4]; 30 min after administration): 4.17 % I.D./g
- Kidney radioactivity ([4]; 30 min after administration): 0.89 % I.D./g
- Large intestine radioactivity ([4]; 30 min after administration): 0.054 % I.D./g
- Liver radioactivity ([4]; 30 min after administration): 0.039 % I.D./g
- Muscle radioactivity ([4]; 30 min after administration): 0.033 % I.D./g
- Small intestine radioactivity ([4]; 30 min after administration): 0.070 % I.D./g
- Spleen radioactivity ([4]; 30 min after administration): 0.046 % I.D./g
- Blood radioactivity ([4]; 60 min after administration): 0.030 % I.D./g
- Bone radioactivity ([4]; 60 min after administration): 4.59 % I.D./g
- Kidney radioactivity ([4]; 60 min after administration): 0.43 % I.D./g
- Large intestine radioactivity ([4]; 60 min after administration): 0.023 % I.D./g
- Liver radioactivity ([4]; 60 min after administration): 0.020 % I.D./g
- Muscle radioactivity ([4]; 60 min after administration): 0.008 % I.D./g
- Small intestine radioactivity ([4]; 60 min after administration): 0.056 % I.D./g
- Spleen radioactivity ([4]; 60 min after administration): 0.021 % I.D./g
- Blood radioactivity ([4]; 120 min after administration): 0.005 % I.D./g
- Bone radioactivity ([4]; 120 min after administration): 5.19 % I.D./g
- Kidney radioactivity ([4]; 120 min after administration): 0.37 % I.D./g
- Large intestine radioactivity ([4]; 120 min after administration): 0.019 % I.D./g
- Liver radioactivity ([4]; 120 min after administration): 0.015 % I.D./g
- Muscle radioactivity ([4]; 120 min after administration): 0.004 % I.D./g
- Small intestine radioactivity ([4]; 120 min after administration): 0.073 % I.D./g
- Spleen radioactivity ([4]; 120 min after administration): 0.014 % I.D./g
- Blood radioactivity ([4]; 240 min after administration): 0.003 % I.D./g
- Bone radioactivity ([4]; 240 min after administration): 4.75 % I.D./g
- Kidney radioactivity ([4]; 240 min after administration): 0.28 % I.D./g
- Large intestine radioactivity ([4]; 240 min after administration): 0.077 % I.D./g
- Liver radioactivity ([4]; 240 min after administration): 0.016 % I.D./g
- Muscle radioactivity ([4]; 240 min after administration): 0.002 % I.D./g
- Small intestine radioactivity ([4]; 240 min after administration): 0.011 % I.D./g
- Spleen radioactivity ([4]; 240 min after administration): 0.012 % I.D./g
- ratio of radioactivity accumulation in bone to that in blood ([4]; compared to 99mTc-MDP, from an early stage after administration): dominantly improved
- accumulation in bone ([4]; compared to 99mTc-MDP, rat): equivalent value of accumulation in bone
- clearance of radioactivity from blood ([4]; compared to 99mTc-MDP, rat): more rapid clearance of radioactivity from blood
- non-specific accumulation in other organs ([4]; rat, similar amount to that of 99mTc-MDP): almost no non-specific accumulation
- Bone/blood ([4]; 15 min after administration): 9
- Bone/blood ([4]; 30 min after administration): 29
- Bone/blood ([4]; 60 min after administration): 155
- Bone/blood ([4]; 120 min after administration): 958
- Bone/blood ([4]; 240 min after administration): 1696

SMILES: O.O.O=P([O-])([O-])CP(=O)([O-])[O-].[99Tc+4] [99mTc-MDP]
- Blood radioactivity [1]: 0.021 % I.D./g
- Bone radioactivity [1]: 4.38 % I.D./g
- Kidney radioactivity [1]: 0.44 % I.D./g
- Large intestine radioactivity [1]: 0.015 % I.D./g
- Liver radioactivity [1]: 0.024 % I.D./g
- Muscle radioactivity [1]: 0.007 % I.D./g
- Small intestine radioactivity [1]: 0.224 % I.D./g
- Spleen radioactivity [1]: 0.020 % I.D./g
- Bone/blood [1]: 209
- Blood radioactivity ([4]; 15 min after administration): 0.415 % I.D./g
- Bone radioactivity ([4]; 15 min after administration): 3.25 % I.D./g
- Kidney radioactivity ([4]; 15 min after administration): 2.84 % I.D./g
- Large intestine radioactivity ([4]; 15 min after administration): 0.121 % I.D./g
- Liver radioactivity ([4]; 15 min after administration): 0.086 % I.D./g
- Muscle radioactivity ([4]; 15 min after administration): 0.085 % I.D./g
- Small intestine radioactivity ([4]; 15 min after administration): 0.134 % I.D./g
- Spleen radioactivity ([4]; 15 min after administration): 0.107 % I.D./g
- Blood radioactivity ([4]; 30 min after administration): 0.171 % I.D./g
- Bone radioactivity ([4]; 30 min after administration): 3.41 % I.D./g
- Kidney radioactivity ([4]; 30 min after administration): 1.02 % I.D./g
- Large intestine radioactivity ([4]; 30 min after administration): 0.062 % I.D./g
- Liver radioactivity ([4]; 30 min after administration): 0.048 % I.D./g
- Muscle radioactivity ([4]; 30 min after administration): 0.036 % I.D./g
- Small intestine radioactivity ([4]; 30 min after administration): 0.093 % I.D./g
- Spleen radioactivity ([4]; 30 min after administration): 0.056 % I.D./g
- Blood radioactivity ([4]; 60 min after administration): 0.044 % I.D./g
- Bone radioactivity ([4]; 60 min after administration): 3.97 % I.D./g
- Kidney radioactivity ([4]; 60 min after administration): 0.62 % I.D./g
- Large intestine radioactivity ([4]; 60 min after administration): 0.020 % I.D./g
- Liver radioactivity ([4]; 60 min after administration): 0.029 % I.D./g
- Muscle radioactivity ([4]; 60 min after administration): 0.010 % I.D./g
- Small intestine radioactivity ([4]; 60 min after administration): 0.081 % I.D./g
- Spleen radioactivity ([4]; 60 min after administration): 0.027 % I.D./g
- Blood radioactivity ([4]; 120 min after administration): 0.018 % I.D./g
- Bone radioactivity ([4]; 120 min after administration): 4.07 % I.D./g
- Kidney radioactivity ([4]; 120 min after administration): 0.36 % I.D./g
- Large intestine radioactivity ([4]; 120 min after administration): 0.053 % I.D./g
- Liver radioactivity ([4]; 120 min after administration): 0.022 % I.D./g
- Muscle radioactivity ([4]; 120 min after administration): 0.005 % I.D./g
- Small intestine radioactivity ([4]; 120 min after administration): 0.299 % I.D./g
- Spleen radioactivity ([4]; 120 min after administration): 0.019 % I.D./g
- Blood radioactivity ([4]; 240 min after administration): 0.012 % I.D./g
- Bone radioactivity ([4]; 240 min after administration): 4.25 % I.D./g
- Kidney radioactivity ([4]; 240 min after administration): 0.35 % I.D./g
- Large intestine radioactivity ([4]; 240 min after administration): 0.467 % I.D./g
- Liver radioactivity ([4]; 240 min after administration): 0.019 % I.D./g
- Muscle radioactivity ([4]; 240 min after administration): 0.004 % I.D./g
- Small intestine radioactivity ([4]; 240 min after administration): 0.056 % I.D./g
- Spleen radioactivity ([4]; 240 min after administration): 0.019 % I.D./g
- Bone/blood ([4]; 15 min after administration): 8
- Bone/blood ([4]; 30 min after administration): 20
- Bone/blood ([4]; 60 min after administration): 91
- Bone/blood ([4]; 120 min after administration): 228
- Bone/blood ([4]; 240 min after administration): 358
